Several values for one entry are separate records, joined by “and”; a condition that tells them apart may be missing. Equal values may be shown once. Entries after “also recorded” stand apart in the source; their conditions may differ.
Assays:
H+, K+-ATPase = assay: Intracellular pH recovery in isolated rat fundic (F1) glands; assay type: cell-based; conditions: for alkalinization rate of F1 glands: 100 μM secretagogue alone
Protocol: Male Sprague Dawley rats weighing 200-300 g were housed in climate and humidity controlled, light cycled rooms and fed standard chow with free access to water. Prior to experiments, animals were fasted while allowing free access to water for 18-24 hours to reduce basal acid secretion. Following isoflurane anesthesia the animals were sacrificed, an abdominal incision was made exposing the stomach. After isolating the esophagus and duodenal junctures a total gastrectomy was performed with 1-2 cm of esophagus remaining attached to the gastrectomy. We included the esophageal juncture to have a common landmark for all fundic isolations. While holding the esophagus with forceps approximately 3 mm of fundus was removed with 5 mm of the intact esophagus. The removed fundic tissue was placed in ice cold HEPES-buffered Ringer-solution (pH adjusted to 7.4 at 4° C.) and transferred to the stage of a dissection microscope. The fundic glands were visualized under the microscope at 50× magnification. Glands adjacent to the esophageal junction were hand dissected. Following isolation, individual glands were adhered to cover slips that had been pretreated with the biological adhesive Cell-Tak (Cell-Tak™ cell adhesive, BD Biosciences; Bedford, Mass.) […] Molecular Probes, OR USA)) for 15 minutes. […] Measurements were performed in the epifluorescence mode with 60×/0.80 and 40×/0.90 objectives. […] Data points were acquired every 15 s. […] Acid extrusion was monitored in the absence of bicarbonate. […] All data are summarized as mean±S.E. Significance was determined using the one-way ANOVA test with p<0.05 considered to be statistically significant. All chemicals used were obtained from Sigma and Molecular Probes.

H+/K+-ATPase [1] = molecular target: T1, H+/K+-ATPase (Rattus norvegicus, UniProt P09626); assay: Intracellular pH recovery in rat corpus glands (comparison with fundus); assay type: cell-based
T1 construct: Individual glands were isolated using a hand-dissection technique; from tissue; host or cells: hand-dissected gastric glands of Sprague-Dawley rats (corpus/antrum)
Protocol: Molecular Probes, OR USA)) for 15 minutes. […] Measurements were performed in the epifluorescence mode with 60×/0.80 and 40×/0.90 objectives. […] Data points were acquired every 15 s. […] Acid extrusion was monitored in the absence of bicarbonate. […] All data are summarized as mean±S.E. Significance was determined using the one-way ANOVA test with p<0.05 considered to be statistically significant. All chemicals used were obtained from Sigma and Molecular Probes.

H+/K+-ATPase [2] = molecular target: T1, H+/K+-ATPase; assay: Oral zinc supplementation in rats, histamine induced proton extrusion of isolated glands; assay type: in vivo
Protocol: Oral Zinc supplementation in rats. These studies were designed to modulate acid secretion by increasing dietary zinc. In these studies we used an oral ZnCl2 solution (zinc chloride in tap water). The animals had free access to food and the zinc containing water for the duration of the study. […] Animals had free access to water prior to the experiment and were fed with standard chow until 24 hours before the experiment, at which point they had free access to ZnCl2 containing water only. After the 5 days exposure period and the 24 hour fast, the animals were sacrificed and a total gastrectomy was performed on the animals. Individual gastric glands were isolated with the hand dissection technique described above.

[3] = test system: histamine induced gastric acid secretion; assay: Whole stomach pH measurements, ex vivo rat whole stomach preparation
Protocol: Whole stomach pH measurements. Before the experiments animals were fasted for 24 h to reduce basal acid secretion to a consistent minimum. Animals were killed with an overdose of isoflurane and an abdominal incision was made. The stomach was ligated at the duodenal and esophageal junction and excised. Then 1 ml of non buffered, isotonic saline (140 mM) was infused into the lumen of the stomach. […] The stomachs were then placed in either oxygenated HEPES-buffered Ringer solution or in the same solution containing 100 μM histamine alone or additionally 300 μM ZnCl2 (pH 7.4) and maintained at 37° C. After 1 hour the stomach contents were aspirated and the pH was recorded.

H+/K+-ATPase [4] = molecular target: H+/K+-ATPase (Homo sapiens, UniProt P20648); assay: Intracellular pH recovery (proton extrusion) in isolated human gastric glands; assay type: cell-based; conditions: histamine stimulation
Text: (§1) Isolation of rat and human gastric Glands. Following removal of the stomach, the stomach was opened longitudinally and the corpus and antrum isolated and sliced into 0.5 cm square sections, and washed with cold Ringer solution to remove residual food particles. The tissues were transferred to the stage of a dissecting microscope. Individual glands were isolated using a hand-dissection technique as described previously^36. Following isolation, individual isolated glands were allowed to adhere to cover slips that had been pre-coated with Cell-Tak (Collaborative Research, Bedford, Mass.) and were transferred to the stage of an inverted microscope.
(§2) Digital imaging for intracellular pH. Isolated gastric glands were incubated in a HEPES-buffered Ringer's solution containing either 10 μmol of the pH-sensitive dye BCECF-AM (2′,7′)-bis-(2-carboxyethyl)-5-(and-6)-carboxy-fluorescin, aceto-methyl ester (Molecular Probes, Eugene, Oreg.) for 10 minutes as described previously^37-39. […] A minimum of 8 cells or regions was selected per gland.
(§3) Proton extrusion by individual parietal cells was monitored by observing recovery of pHi after acid loading the cells with Na^+ free HEPES solution containing 20 mM NH4Cl.
(§4) The recovery rates are expressed as the ΔpH/min, and were calculated over the pH range of 6.5-6.8.

H+/K+-ATPase [5] = molecular target: T1, H+/K+-ATPase; assay: Intracellular pH recovery (proton extrusion) in isolated rat gastric glands, NH4Cl prepulse, BCECF; assay type: cell-based
Protocol: Animals. Sprague-Dawley rats 150-250 g (Charles River Laboratory)) were housed in climate- and humidity-controlled, light-cycled rooms, fed standard chow with free access to water, and handled according to the humane practices of animal care established by the Yale Animal Care. Prior to experiments, animals were fasted for 18-24 hours with free access to water.
as §1, §2, §3, §4

T1 sequence (P09626 whole entry): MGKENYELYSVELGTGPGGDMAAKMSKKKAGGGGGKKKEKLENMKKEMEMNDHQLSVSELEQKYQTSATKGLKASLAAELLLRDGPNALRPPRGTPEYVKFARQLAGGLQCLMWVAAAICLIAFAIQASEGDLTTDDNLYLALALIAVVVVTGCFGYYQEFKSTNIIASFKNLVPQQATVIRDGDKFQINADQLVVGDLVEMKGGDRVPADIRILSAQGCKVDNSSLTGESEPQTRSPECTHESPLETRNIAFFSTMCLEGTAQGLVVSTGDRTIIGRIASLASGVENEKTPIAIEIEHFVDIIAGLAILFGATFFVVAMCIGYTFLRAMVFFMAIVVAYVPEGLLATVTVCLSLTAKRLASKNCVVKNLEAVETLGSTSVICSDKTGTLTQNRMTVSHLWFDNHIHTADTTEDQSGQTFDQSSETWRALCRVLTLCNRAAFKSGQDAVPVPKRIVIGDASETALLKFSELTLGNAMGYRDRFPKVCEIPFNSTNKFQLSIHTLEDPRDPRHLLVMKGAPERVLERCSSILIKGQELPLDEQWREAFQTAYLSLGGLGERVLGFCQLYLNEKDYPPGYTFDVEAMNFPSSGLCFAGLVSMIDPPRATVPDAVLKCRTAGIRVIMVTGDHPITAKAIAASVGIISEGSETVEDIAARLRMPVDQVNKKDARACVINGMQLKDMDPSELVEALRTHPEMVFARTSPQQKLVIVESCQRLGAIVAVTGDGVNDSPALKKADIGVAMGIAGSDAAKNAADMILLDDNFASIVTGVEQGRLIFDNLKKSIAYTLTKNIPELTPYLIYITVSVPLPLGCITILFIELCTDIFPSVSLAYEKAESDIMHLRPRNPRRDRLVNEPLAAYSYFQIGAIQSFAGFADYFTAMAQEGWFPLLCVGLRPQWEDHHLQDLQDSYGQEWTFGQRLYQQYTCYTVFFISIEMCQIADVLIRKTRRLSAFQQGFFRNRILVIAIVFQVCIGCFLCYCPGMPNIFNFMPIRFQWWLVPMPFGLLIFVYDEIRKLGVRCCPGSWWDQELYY
T1 sequence (P18598 whole entry partner): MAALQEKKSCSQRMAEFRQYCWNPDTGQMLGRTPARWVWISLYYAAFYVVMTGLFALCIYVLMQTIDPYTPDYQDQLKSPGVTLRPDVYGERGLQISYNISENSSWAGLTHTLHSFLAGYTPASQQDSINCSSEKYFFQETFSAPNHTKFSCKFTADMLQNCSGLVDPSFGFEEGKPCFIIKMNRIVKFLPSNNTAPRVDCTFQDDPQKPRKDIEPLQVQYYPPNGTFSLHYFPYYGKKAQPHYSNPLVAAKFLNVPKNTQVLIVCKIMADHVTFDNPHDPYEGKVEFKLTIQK
Chain of H+/K+-ATPase (Homo sapiens, UniProt P20648) (P20648 whole entry): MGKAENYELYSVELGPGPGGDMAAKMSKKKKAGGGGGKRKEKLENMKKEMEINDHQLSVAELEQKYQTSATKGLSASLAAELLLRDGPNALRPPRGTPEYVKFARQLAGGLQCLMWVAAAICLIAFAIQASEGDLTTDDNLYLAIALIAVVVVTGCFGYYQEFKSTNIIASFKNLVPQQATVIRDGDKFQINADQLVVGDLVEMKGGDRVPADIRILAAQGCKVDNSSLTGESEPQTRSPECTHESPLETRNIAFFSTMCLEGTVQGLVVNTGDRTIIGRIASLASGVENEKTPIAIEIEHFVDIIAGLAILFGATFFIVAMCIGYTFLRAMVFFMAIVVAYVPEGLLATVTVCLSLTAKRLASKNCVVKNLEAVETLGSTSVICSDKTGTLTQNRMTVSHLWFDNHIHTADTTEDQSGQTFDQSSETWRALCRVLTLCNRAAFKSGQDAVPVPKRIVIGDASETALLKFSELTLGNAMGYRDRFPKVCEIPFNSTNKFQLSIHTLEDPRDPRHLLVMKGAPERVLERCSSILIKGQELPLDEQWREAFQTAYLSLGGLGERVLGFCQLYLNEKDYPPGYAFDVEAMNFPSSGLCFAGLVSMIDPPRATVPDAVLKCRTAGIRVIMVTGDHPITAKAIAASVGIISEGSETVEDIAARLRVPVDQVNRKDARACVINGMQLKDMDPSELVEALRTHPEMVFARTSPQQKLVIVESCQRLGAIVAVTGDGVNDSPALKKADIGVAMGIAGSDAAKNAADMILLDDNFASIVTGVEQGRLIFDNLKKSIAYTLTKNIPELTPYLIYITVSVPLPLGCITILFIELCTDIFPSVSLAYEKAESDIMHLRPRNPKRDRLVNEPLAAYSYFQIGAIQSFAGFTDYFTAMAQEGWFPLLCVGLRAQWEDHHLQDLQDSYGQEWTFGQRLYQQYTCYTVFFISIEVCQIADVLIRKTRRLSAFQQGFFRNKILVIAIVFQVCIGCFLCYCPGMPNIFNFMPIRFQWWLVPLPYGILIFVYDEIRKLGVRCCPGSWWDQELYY
Chain of H+/K+-ATPase (Homo sapiens, UniProt P20648) (P51164 whole entry partner): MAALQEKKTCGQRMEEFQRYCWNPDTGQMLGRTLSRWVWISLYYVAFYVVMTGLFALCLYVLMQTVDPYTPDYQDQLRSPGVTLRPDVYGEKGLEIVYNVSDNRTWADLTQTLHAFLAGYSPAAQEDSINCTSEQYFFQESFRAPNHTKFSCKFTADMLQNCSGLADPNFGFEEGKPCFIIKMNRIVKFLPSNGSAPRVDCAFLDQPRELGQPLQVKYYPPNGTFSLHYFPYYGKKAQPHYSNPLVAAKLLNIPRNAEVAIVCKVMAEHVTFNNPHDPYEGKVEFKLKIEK

Structure (SMILES): Cc1cccc(C)c1CNc1cc(C(=O)NCCO)cn2c(C)c(C)nc12 [AZD0865]
- inhibition of acid secretion in F1 (fundic) glands, in words (H+, K+-ATPase; omeprazole 200 μM with histamine 100 μM, AZD0865 10 μM): does not completely inhibit proton extrusion
- inhibition of acid secretion in corpus glands, in words (H+/K+-ATPase [1]; omeprazole 200 μM, AZD0865 10 μM): effectively inhibits acid secretion; also recorded: strong inhibition

Structure (SMILES): NCCc1c[nH]cn1 [histamine]
- effect of secretagogue on F1 zone glands in comparison to controls, in words (H+, K+-ATPase; 100 μM): no effect
- alkalinization rate of F1 glands (H+, K+-ATPase): 0.04±0.0079 ΔpHi/min and 0.042±0.007 ΔpHi/min
- histamine stimulated proton extrusion rate in corpus gland (H+/K+-ATPase [1]; 100 μM histamine): 0.056±0.008 ΔpHi/min
- recovery rate (proton extrusion) of histamine stimulated parietal cells (H+/K+-ATPase [2]; control group, histamine alone, no zinc): 0.051±0.004
- mean luminal pH ([3]; 100 μM histamine, 1 hour): 3.15±0.27

Structure (SMILES): CC(=O)OCC[N+](C)(C)C [acetylcholine]
- alkalinization rate of F1 glands (H+, K+-ATPase): 0.075±0.0015 ΔpHi/min

Structure (SMILES): COc1ccc2[nH]c([S+]([O-])Cc3ncc(C)c(OC)c3C)nc2c1 (centres unmarked) [omeprazole]
- alkalinization rate of fundic glands (H+, K+-ATPase; 200 μM omeprazole and 100 μM histamine): 0.045±0.002 ΔpHi/min

Structure (SMILES): [Cl-].[Cl-].[Zn+2] [ZnCl2, zinc chloride]
- effect on histamine stimulated proton efflux in human gastric glands (H+/K+-ATPase [4]): abolished
- inhibition of proton extrusion compared to the histamine induced rate (H+/K+-ATPase [5]; 300 μM ZnCl2, 100 μM histamine): 98%
- effect on histamine induced proton efflux from gastric glands (H+/K+-ATPase [5]; 300 umol ZnCl2, histamine 100 μM): blocked
- onset of inhibition of histamine induced acid secretion (H+/K+-ATPase [5]; ZnCl2 300 μM added to superfusion bath, histamine 100 μM): abolished after a few seconds
- histamine induced proton extrusion rate after oral ZnCl2 (H+/K+-ATPase [2]; 0.5 mg/kg/d ZnCl2 in drinking water for 5 days): 0.034±0.0036
- histamine induced proton extrusion rate after oral ZnCl2 (H+/K+-ATPase [2]; 150 mg/kg/d ZnCl2 in drinking water for 5 days): 0.022±0.0045
- mean luminal pH ([3]; 100 μM histamine and 300 μM ZnCl2, 1 hour): 4.54±0.065
- whole stomach pH in words ([3]; 100 μmol histamine and 300 μmol ZnCl2): higher pH than those in HEPES-buffered Ringer solution and histamine

From patent US11510894B2, “Fast acting inhibitor of gastric acid secretion” (priority 2006, dated 2022)
